Assays:
Format in all cases: in vivo
[1] = system: Stomoxis calcitrans (stable fly); test: Uptake of alkylated porphyrins by flies fed porphyrin-containing bait; conditions: S. calcitrans
Description: (§1) Porphyrins: • a) meso[tri(N-methyl-pyridyl), mono(N-dodecyl-pyridyl)]porphine (abbr.: C12) • b) meso[tri(N-methyl-pyridyl), mono(N-tetradecyl-pyridyl)]porphine (abbr.: C14) • c) meso[tri(N-methyl-pyridyl), mono(N-octadecyl-pyridyl)]porphine (abbr.: C18) Bait: Aqueous solution containing 10% sucrose and 1% autolysed yeast Flies: • a) Ceratitis capitata (fruit fly) age: 1 week; weight: 5-6 mg • b) Bactrocera oleae (olive fly) age: 10 days; weight: 4-4.5 mg • c) Stomoxis calcitrans (stable fly) age: 10 days; weight: 12 mg Irradiation: • a) High pressure halogen lamp, equipped with infrared and UV filters, emission 360-850 nm, operated at intensities in the 760-2,000 μE s^−1m^−2 range • b) Sunlight, mid June at Padua latitude, average intensity of […] μE s^−1m^−2 with minimum and maximum values of 950 and, respectively, 1,380 μE s^−1m^−2
(§2) An appropriate number of flies (50 flies per each experiment) was caged in 115×55×70 mm Plexiglas cages with several holes (ø=0.5 mm) and starved for 36 h. Then, depending on the protocol to be adopted for each specific experiment, the flies were fed with the bait (10% sucrose and 1% autolysed yeast in neutral aqueous solution), which was either porphyrin-free or added with a predetermined concentration of the porphyrin. These flies were then used in the various experimental sessions.
(§3) At predetermined times, the flies were sacrificed by freezing; the dead flies were then homogenized with a Polytron in 10 ml of a 2% aqueous solution of sodium dodecylsulphate (SDS). The suspension was centrifuged for 10 min at 2,000 rpm, the pellet was discarded and known aliquots of the supernatant were diluted by means of a chloroform/methanol binary mixture (1/2, v/v). The porphyrin concentration was measured by reading the fluorescence emitted at wavelengths above 630 nm and interpolating the emission intensity with a calibration plot obtained with known amounts of the porphyrin. The results were expressed as nanomoles of porphyrin recovered per fly.

[2] = system: Ceratitis capitata (fruit fly); test: as above; conditions: C. capitata
Description: as §1, §2, §3

[3] = system: Bactrocera oleae (olive fly); test: as above; conditions: B. oleae
Description: as §1, §2, §3

Bactrocera oleae flies = test: Insecticidal action in the dark: fly survival after porphyrin bait; conditions: fed 24 h, survival 12 h after change to porphyrin-free bait
Description: (§4) These flies were then used in the various experimental sessions. […] The number of survivors was evaluated 12 h after switching from administration of a porphyrin-containing bait to a porphyrin-free bait. In none of the experiments was mortality or any apparent toxic effect observed in control flies (flies not fed with porphyrin, see survival at 0 μM porphyrin concentration).

[4] = system: Stomoxis calcitrans flies; test: as above; conditions: fed 24 h, survival 12 h after change to porphyrin-free bait
Description: as §4

[5] = system: Stomoxis calcitrans (stable fly); test: Release of alkylated porphyrin from flies after feeding with bait interrupted; conditions: S. calcitrans, 1.25 μM porphyrin in the bait
Description: as §2, §3

[6] = system: Ceratitis capitata (fruit fly); test: as above; conditions: C. capitata, 1.25 μM porphyrin in the bait
Description: as §2, §3

[7] = system: Bactrocera oleae (olive fly); test: as above; conditions: B. oleae, 1.25 μM porphyrin in the bait
Description: as §2, §3

Ceratitis capitata flies [8] = test: Photoinsecticidal action: fly survival after bait and sunlight irradiation; conditions: 3 μM in bait, 12 h after feeding, survival 1 h after irradiation
Description: as §1
The survival was evaluated 1 h after the end of irradiation.
as §2

Ceratitis capitata flies [9] = test: Insecticidal action in the dark: fly survival after porphyrin bait; conditions: dark, fed 24 h, survival 12 h after change to porphyrin-free bait
Description: as §4, with “For comparison, data obtained with two conventional porphyrins (as those described in WO 97/29637) offered to the insects for 24 h at a 3.0 and 8.1 μmolar concentration in the same bait are also shown. In all cases, the survival was determined 12 hours after changing food supply from a porphyrin-containing to a porphyrin-free bait. […] These” for “These”

[10] = exposure time to bait 3 h, porphyrin in bait 1.24 μM
[11] = exposure time to bait 12 h, porphyrin in bait 1.24 μM
[12] = exposure time to bait 24 h, porphyrin in bait 1.24 μM
[13] = porphyrin concentration in bait 0.75 (μmoles), feeding 24 h
[14] = porphyrin concentration in bait 1.25 (μmoles), feeding 24 h
[15] = porphyrin concentration in bait 2.10 (μmoles), feeding 24 h
[16] = porphyrin concentration in bait 3.50 (μmoles), feeding 24 h
[17] = porphyrin concentration in bait 6.00 (μmoles), feeding 24 h

SMILES: CCCCCCCCCCCCCC[n+]1ccc(-c2c3nc(c(-c4cc[n+](C)cc4)c4ccc([nH]4)c(-c4cc[n+](C)cc4)c4nc(c(-c5cc[n+](C)cc5)c5ccc2[nH]5)C=C4)C=C3)cc1 [C14, meso[tri(N-methyl-pyridyl), mono(N-tetradecyl-pyridyl)]porphine]
- Recoveries (nmoles of porphyrin per fly) [1, 10]: 2.4 nmoles of porphyrin per fly
- Recoveries (nmoles of porphyrin per fly) [1, 11]: 5.6 nmoles of porphyrin per fly
- Recoveries (nmoles of porphyrin per fly) [1, 12]: 6.2 nmoles of porphyrin per fly
- Recoveries (nmoles of porphyrin per fly) [1, 13]: 4.1 nmoles of porphyrin per fly
- Recoveries (nmoles of porphyrin per fly) [1, 14]: 6.2 nmoles of porphyrin per fly
- Recoveries (nmoles of porphyrin per fly) [1, 15]: 10.2 nmoles of porphyrin per fly
- Recoveries (nmoles of porphyrin per fly) [1, 16]: 12.5 nmoles of porphyrin per fly
- Recoveries (nmoles of porphyrin per fly) [1, 17]: 12.8 nmoles of porphyrin per fly
- Recoveries (nmoles of porphyrin per fly) [2, 10]: 2.9 nmoles of porphyrin per fly
- Recoveries (nmoles of porphyrin per fly) [2, 11]: 5.3 nmoles of porphyrin per fly
- Recoveries (nmoles of porphyrin per fly) [2, 12]: 5.7 nmoles of porphyrin per fly
- Recoveries (nmoles of porphyrin per fly) [2, 13]: 2.6 nmoles of porphyrin per fly
- Recoveries (nmoles of porphyrin per fly) [2, 14]: 5.7 nmoles of porphyrin per fly
- Recoveries (nmoles of porphyrin per fly) [2, 15]: 9.6 nmoles of porphyrin per fly
- Recoveries (nmoles of porphyrin per fly) [2, 16]: 11.5 nmoles of porphyrin per fly
- Recoveries (nmoles of porphyrin per fly) [2, 17]: 14.0 nmoles of porphyrin per fly
- Recoveries (nmoles of porphyrin per fly) [3, 10]: 2.2 nmoles of porphyrin per fly
- Recoveries (nmoles of porphyrin per fly) [3, 11]: 3.7 nmoles of porphyrin per fly
- Recoveries (nmoles of porphyrin per fly) [3, 12]: 4.8 nmoles of porphyrin per fly
- Recoveries (nmoles of porphyrin per fly) [3, 13]: 3.9 nmoles of porphyrin per fly
- Recoveries (nmoles of porphyrin per fly) [3, 14]: 4.8 nmoles of porphyrin per fly
- Recoveries (nmoles of porphyrin per fly) [3, 15]: 8.5 nmoles of porphyrin per fly
- Recoveries (nmoles of porphyrin per fly) [3, 16]: 10.6 nmoles of porphyrin per fly
- Recoveries (nmoles of porphyrin per fly) [3, 17]: 13.8 nmoles of porphyrin per fly
- Survival (% of control untreated flies) (Bactrocera oleae flies; 0.75 μM in bait): 100 % of control untreated flies
- Survival (% of control untreated flies) (Bactrocera oleae flies; 1.25 μM in bait): 100 % of control untreated flies
- Survival (% of control untreated flies) (Bactrocera oleae flies; 2.10 μM in bait): 69 % of control untreated flies
- Survival (% of control untreated flies) (Bactrocera oleae flies; 3.00 μM in bait): 50 % of control untreated flies
- Survival (% of control untreated flies) (Bactrocera oleae flies; 5.00 μM in bait): 37 % of control untreated flies
- Survival (% of control untreated flies) (Bactrocera oleae flies; 8.10 μM in bait): 19 % of control untreated flies
- Survival (% of control untreated flies) ([4]; 0.75 μM in bait): 100 % of control untreated flies
- Survival (% of control untreated flies) ([4]; 1.25 μM in bait): 77 % of control untreated flies
- Survival (% of control untreated flies) ([4]; 2.10 μM in bait): 52 % of control untreated flies
- Survival (% of control untreated flies) ([4]; 3.00 μM in bait): 31 % of control untreated flies
- Survival (% of control untreated flies) ([4]; 5.00 μM in bait): 11 % of control untreated flies
- Survival (% of control untreated flies) ([4]; 8.10 μM in bait): 3 % of control untreated flies
- Recoveries (nmoles of porphyrin per fly), release ([5]; 12 h after feeding interrupted): 4.3 nmoles of porphyrin per fly
- Recoveries (nmoles of porphyrin per fly), release ([5]; 24 h after feeding interrupted): 2.2 nmoles of porphyrin per fly
- Recoveries (nmoles of porphyrin per fly), release ([5]; 48 h after feeding interrupted): 0.8 nmoles of porphyrin per fly
- Recoveries (nmoles of porphyrin per fly), release ([6]; 12 h after feeding interrupted): 3.0 nmoles of porphyrin per fly
- Recoveries (nmoles of porphyrin per fly), release ([6]; 24 h after feeding interrupted): 1.8 nmoles of porphyrin per fly
- Recoveries (nmoles of porphyrin per fly), release ([6]; 48 h after feeding interrupted): 0.7 nmoles of porphyrin per fly
- Recoveries (nmoles of porphyrin per fly), release ([7]; 12 h after feeding interrupted): 3.2 nmoles of porphyrin per fly
- Recoveries (nmoles of porphyrin per fly), release ([7]; 24 h after feeding interrupted): 2.0 nmoles of porphyrin per fly
- Recoveries (nmoles of porphyrin per fly), release ([7]; 48 h after feeding interrupted): 0.6 nmoles of porphyrin per fly
- Survival (% of control untreated flies) (Ceratitis capitata flies [8]; sunlight (average 1150 μE s^−1m^−2) 15 min): 21 % of control untreated flies
- Survival (% of control untreated flies) (Ceratitis capitata flies [8]; sunlight (average 1150 μE s^−1m^−2) 30 min): 10 % of control untreated flies
- Survival (% of control untreated flies) (Ceratitis capitata flies [8]; sunlight (average 1150 μE s^−1m^−2) 45 min): 0 % of control untreated flies
- Survival (% of control untreated flies) (Ceratitis capitata flies [8]; sunlight (average 1150 μE s^−1m^−2) 60 min): 0 % of control untreated flies
- Survival (% of control untreated flies) (Ceratitis capitata flies [9]; 0.75 μM in bait): 100 % of control untreated flies
- Survival (% of control untreated flies) (Ceratitis capitata flies [9]; 1.25 μM in bait): 51 % of control untreated flies
- Survival (% of control untreated flies) (Ceratitis capitata flies [9]; 2.10 μM in bait): 38 % of control untreated flies
- Survival (% of control untreated flies) (Ceratitis capitata flies [9]; 3.00 μM in bait): 21 % of control untreated flies
- Survival (% of control untreated flies) (Ceratitis capitata flies [9]; 5.00 μM in bait): 14 % of control untreated flies
- Survival (% of control untreated flies) (Ceratitis capitata flies [9]; 8.10 μM in bait): 9 % of control untreated flies

Source: patent US7384927B2, “Alkylated porphyrins as pesticides acting both in the presence and absence of light” (priority 2003, dated 2008)
